The record followed here is patent US9468670B2, “Melatonin-based treatment and diagnosis of bile duct disease” (Texas A&M University System, priority 2011, dated 2016).

The nature of data set [1]: Serum transaminases (SGPT, SGOT) and total bilirubin in normal and BDL rats. Format: in vivo, rat. The conditions noted are these: tap water containing melatonin (20 mg/L) for 1 week. The procedure:
Male 344 Fischer rats (150-175 g) were purchased from Charles River (Wilmington, Mass.) and kept in a temperature-controlled environment (22° C.) with 12:12 hr light/dark cycles. Animals were fed ad libitum and had free access to food and drinking water. […] Before each surgical procedure, animals were anesthetized with sodium pentobarbital (50 mg/kg BW, IP). All animal experiments were performed in accordance with a protocol approved by the Scott and White and Texas A&M Health Science Center Institutional Animal Care and Use Committee and conform to the Guide for the Care and Use of Laboratory Animals published by the US National Institutes of Health (NIH Publication No. 85-23, revised 1996). In all animals, wet liver weight, body weight, wet liver weight to body weight ratio, and an index of liver cell growth including cholangiocytes were measured ([…] et al., 1988). In the selected groups of animals, the serum levels of the transaminases, serum glutamate pyruvate transaminases (SGPT) and serum glutamic oxaloacetic transaminase (SGOT) and total bilirubin were evaluated using a Dimension RxL Max Integrated Chemistry system (Dade Behring Inc., Deerfield Ill.) by the Chemistry Department, Scott & White. Melatonin serum levels were measured by commercially available ELISA kits according to the instructions provided by the vendor (Genway, San Diego, Calif.).

The test system of a further data set is CLOCK gene. Nature of the data set: CLOCK expression by qPCR in CCA lines after melatonin. Type of data set: cell-based, human. The settings on record: melatonin 10-11 M for 48 hours. The procedure:
Methods: Melatonin immunoreactivity, the expression of melatonin biosynthesis enzymes and receptors were assessed by immunohistochemistry in tissue arrays from normal and CCA patients, and by qPCR and immunoblots in intra-hepatic and extra-hepatic CCA cell lines, and a normal cholangiocyte line (H69). Proliferation was evaluated in vitro by MTS assay in CCA lines and H69 after treatment with melatonin (10-7 to 10-11 M, 24-72 hours). In parallel, the expression of CLOCK after melatonin treatment (10-11 M for 48 hours) was assessed in CCA lines and normal cholangiocytes by qPCR.

The subject of data set [2] is PER1, BMAL1, CRY1, CLOCK, MT1 and MT2. In words: Expression of clock genes and MT1/MT2 in cholangiocytes from treated rats (real-time PCR, FACS). Format: in vivo, rat. The procedure:
Male 344 Fischer rats (150-175 g) were purchased from Charles River (Wilmington, Mass.) and kept in a temperature-controlled environment (22° C.) with 12:12 hr light/dark cycles. Animals were fed ad libitum and had free access to food and drinking water. […] Before each surgical procedure, animals were anesthetized with sodium pentobarbital (50 mg/kg BW, IP). All animal experiments were performed in accordance with a protocol approved by the Scott and White and Texas A&M Health Science Center Institutional Animal Care and Use Committee and conform to the Guide for the Care and Use of Laboratory Animals published by the US National Institutes of Health (NIH Publication No. 85-23, revised 1996). In all animals, wet liver weight, body weight, wet liver weight to body weight ratio, and an index of liver cell growth including cholangiocytes were measured ([…] et al., 1988). […] FACS analysis was performed as described (Onori et al., 2010) using a C6 flow cytometer and analyzed by CFlow Software (Accuri Cytometers Inc. Ann Arbor, Mich.). […] The relative quantity of the selected protein (mean selected protein fluorescence) was expressed as mean FL1-A (samples)/mean FL-1A (secondary antibodies only). […] Data were expressed as relative mRNA levels ±SEM of the selected gene to glyceraldehyde-3-phosphate dehydrogenase (GAPDH) ratio.

Data set [3] deals with large mouse cholangiocyte lines. Nature of the data set: cAMP levels (RIA) in large mouse cholangiocyte lines. The conditions noted are these: melatonin 10^−11 M for 5 minutes. Type of data set: cell-based. An excerpt:
The expression of MT1 and MT2 receptors in immortalized large cholangiocytes was first evaluated by immunofluorescence (Francis et al., 2008). Images were visualized using an Olympus IX-71 confocal microscope. For all immunoreactions, negative controls (with normal serum from the same species substituted for the primary antibody) were included. It was next evaluated by commercially available radioimmunoassay (RIA) kits ([…] et al., 1998; Kato et al., 1992; […] et al., 1999; […] et al., 2004) for cAMP levels ([…] et al., 1998; Kato et al., 1992; […] Shiu et al., 2010). […] […] et al., 1992; Ramirez-Rodriguez et al., 2009; […], 1999). […] Shiu et al., 2010) before evaluating by immunoblots (Francis et al., 2008) the expression of PCNA and the phosphorylation of PKA and EKR1/2.

Data set [4] can be described thus: Melatonin serum levels by ELISA in normal and BDL rats. The settings on record: male, Fischer 344, rat, oral, 20 mg/L in drinking water, tap water containing melatonin (20 mg/L) for 1 week. Type of data set: in vivo.
Protocol: Male 344 Fischer rats (150-175 g) were purchased from Charles River (Wilmington, Mass.) and kept in a temperature-controlled environment (22° C.) with 12:12 hr light/dark cycles. Animals were fed ad libitum and had free access to food and drinking water. The studies were performed in normal rats, and in rats that immediately after bile duct ligation (BDL, for collection of serum, liver tissues and cells) (Alpini et al., 1988) or bile duct incannulation (BDI, for bile collection) (Alpini et al., 1988) had ad libitum access to tap water or tap water containing melatonin (20 mg/L in drinking water that corresponds to approximately an intake of melatonin of 2 mg/g BW per day per rat) (Anisimov et al., 2003) for 1 week. Before each surgical procedure, animals were anesthetized with sodium pentobarbital (50 mg/kg BW, IP).

In data set [1] (BDL rats), `COc1ccc2[nH]cc(CCNC(C)=O)c2c1` [melatonin] gave an SGOT of 585.0 ± 162.4 Units/L, an SGPT of 210.8 ± 45.9 Units/L and a Total bilirubin of 7.3 ± 1.9 mg/L. Moreover, in data set [1] (normal rats), the SGOT was 143.0 ± 36.0 Units/L, the SGPT turned out to be 69.4 ± 45.9 Units/L and the Total bilirubin is given as <0.1 mg/L. The “Increase in levels of the CLOCK gene in CCA cells” value in the data set with CLOCK gene is recorded as ~50%. The “Expression of MT1 and MT2 in cholangiocytes” value in data set [2] (BDL rats treated in vivo vs. regular tap water) is given as “decreased”. Besides, in data set [2] (normal and BDL rats treated in vivo vs. control cholangiocytes), the “Expression of PER1, BMAL1, CRY1 and CLOCK in cholangiocytes” value was “decreased”. Also, the cAMP levels result in data set [3] is “decreased”. Also, the concentration at 1 week in data set [4] (BDL rats) worked out at 0.165 ± 0.0668 ng/mL. The concentration at 1 week in data set [4] (normal rats) was 0.14 ± 0.0127 ng/mL.
